From patent publication US11873298B2, “Compounds and uses thereof” (JANSSEN PHARMACEUTICA NV, priority 2017, dated 2024)
Values joined by “and” are separate entries in the source; they are usually repeats but may differ in a detail not shown here. Equal values may be shown once.

Tests used:
Assay type in all cases: cell-based
[1] = target: T1, SCD5 (Homo sapiens, UniProt Q86SK9); assay: Growth inhibition of humanized yeast strain expressing SCD5 as sole desaturase; conditions: humanized yeast strain expressing SCD5
T1 construct: host or cells: S. cerevisiae ole1Δ strain (W303 pdr1Δ pdr3Δ background), plasmid pRS316 with TDH3 promoter and CYC1 terminator
T1 sequence (Q86SK9 1-330): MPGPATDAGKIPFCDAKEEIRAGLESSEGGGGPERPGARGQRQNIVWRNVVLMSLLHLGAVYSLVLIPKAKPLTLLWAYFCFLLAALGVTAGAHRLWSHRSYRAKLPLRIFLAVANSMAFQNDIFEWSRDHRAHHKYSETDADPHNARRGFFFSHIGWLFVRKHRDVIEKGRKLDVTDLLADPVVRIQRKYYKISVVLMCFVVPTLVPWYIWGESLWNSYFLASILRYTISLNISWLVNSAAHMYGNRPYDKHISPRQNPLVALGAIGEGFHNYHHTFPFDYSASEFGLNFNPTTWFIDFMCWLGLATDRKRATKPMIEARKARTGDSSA
Summary of the method: (§1)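 ole1Δ yeast (W303 pdr1Δ pdr3Δ background) carrying plasmid-borne Ole1, SCD1 or SCD5, grown in uracil-free media; cultures pre-grown in raffinose, seeded at 2× density 0.02 in galactose media with compound. Growth read as OD600 after 24 h at 30° C. for Ole1, 40 h for SCD1/SCD5.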

[2] = target: T2, SCD1 (Homo sapiens, UniProt O00767); assay: Growth inhibition of humanized yeast strain expressing SCD1 as sole desaturase; conditions: humanized yeast strain expressing SCD1
T2 construct: host or cells: S. cerevisiae ole1Δ strain (W303 pdr1Δ pdr3Δ background), plasmid pRS316 with TDH3 promoter and CYC1 terminator
T2 sequence (O00767 1-359): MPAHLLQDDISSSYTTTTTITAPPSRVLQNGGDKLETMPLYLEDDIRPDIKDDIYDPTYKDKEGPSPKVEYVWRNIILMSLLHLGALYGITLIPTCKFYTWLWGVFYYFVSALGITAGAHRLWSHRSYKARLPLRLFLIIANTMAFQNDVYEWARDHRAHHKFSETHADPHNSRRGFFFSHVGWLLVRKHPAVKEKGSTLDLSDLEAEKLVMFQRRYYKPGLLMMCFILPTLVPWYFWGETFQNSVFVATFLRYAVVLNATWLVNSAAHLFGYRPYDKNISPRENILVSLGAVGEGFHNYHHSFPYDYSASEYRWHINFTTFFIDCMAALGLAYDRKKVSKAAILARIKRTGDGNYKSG
Summary of the method: as §1

[3] = target: T3, Ole1 (Saccharomyces cerevisiae, UniProt P21147); assay: Growth inhibition of yeast strain expressing Ole1 as sole desaturase; conditions: yeast strain expressing Ole1 as sole desaturase
T3 construct: expressed in transfected cells; host or cells: S. cerevisiae ole1Δ strain (W303 pdr1Δ pdr3Δ background), plasmid pRS316 with TDH3 promoter and CYC1 terminator
T3 sequence (P21147 1-510): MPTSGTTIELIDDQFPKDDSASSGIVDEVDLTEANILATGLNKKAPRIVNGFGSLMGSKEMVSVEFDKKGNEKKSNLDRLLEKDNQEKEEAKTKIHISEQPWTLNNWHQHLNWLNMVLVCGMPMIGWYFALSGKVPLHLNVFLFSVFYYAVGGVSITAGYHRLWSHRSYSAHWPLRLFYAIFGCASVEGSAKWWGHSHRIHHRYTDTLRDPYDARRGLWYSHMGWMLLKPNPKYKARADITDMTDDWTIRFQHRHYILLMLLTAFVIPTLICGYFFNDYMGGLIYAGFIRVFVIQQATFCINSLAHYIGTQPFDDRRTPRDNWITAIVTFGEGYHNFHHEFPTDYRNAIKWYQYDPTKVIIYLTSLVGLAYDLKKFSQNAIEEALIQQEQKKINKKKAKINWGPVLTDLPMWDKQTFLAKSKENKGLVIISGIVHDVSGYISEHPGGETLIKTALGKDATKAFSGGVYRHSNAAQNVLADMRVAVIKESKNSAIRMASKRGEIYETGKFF
Summary of the method: as §1

SMILES	IC50 [1] [µM]	SCD5 % Max Inhibition [1]	IC50 [2] [µM]	SCD1 % Max Inhibition [2]	IC50 [3] [µM]	OLE1 % Max Inhibition [3]
Cc1nn(C)c2cc(-c3noc(C4(C)CCN(C(=O)CNC(=O)c5ccccc5)CC4)n3)ccc12 [Compound 227]	> 45	6.17%	38.3	63.76%	> 45	1.24%
CC(C)n1ncc2cc(-c3noc(C4CCN(C(=O)CNC(=O)c5ccccc5)CC4)n3)ccc21 [Compound 228]	> 45	2.72%	–	51.80%	> 45	21.30%
CC(C)n1cc2cc(-c3noc(C4CCN(C(=O)CNC(=O)c5ccccc5)CC4)n3)ccc2n1 [Compound 229]	> 45	71.18%	> 45	66.51%	> 45	89.56%
Cn1c(=O)n(C)c2cc(-c3noc(C4CCN(C(=O)CNC(=O)c5ccccn5)CC4)n3)ccc21 [Compound 230]	> 45	44.00%	> 45	78.48%	> 45	2.63%
O=C(C1CC(=O)N(c2ccccc2)C1)N1CCC(c2nc(N3CC4(COC4)C3)no2)CC1 (centres unmarked) [Compound 231]	> 45	3.11%	> 45	80.00%	> 45	29.53%
Cc1nn(C)c2cc(-c3nsc(C4CCN(C(=O)CNC(=O)c5ccccn5)CC4)n3)ccc12 [Compound 232]	41.1	51.17%	> 45	81.04%	> 45	4.20%
Cn1c(=O)n(C)c2cc(-c3noc(C4CCN(C(=O)CNC(=O)c5cccnc5)CC4)n3)ccc21 [Compound 233]	> 45	74.91%	> 45	73.65%	> 45	18.46%
CCOc1ccc(-c2noc(C3CCN(C(=O)[C@H]4CCN(C(=O)c5ccccc5)C4)CC3)n2)cc1OC [Compound 234]	> 45	76.83%	> 45	68.91%	> 45	84.80%
CCOc1ccc(-c2noc(C3CCN(C(=O)C4CN(c5ccccc5)C(=O)CO4)CC3)n2)cc1OC (centres unmarked) [Compound 235]	> 45	87.47%	> 45	74.46%	> 45	84.04%
Cc1nn(C)c2cc(-c3noc(C4CCN(C(=O)C5CN(C(=O)c6ccccc6)C5)CC4)n3)ccc12 [Compound 236]	> 45	3.14%	> 45	77.23%	> 45	8.46%
CCOc1ccc(-c2noc(C3CCN(C(=O)C4CN(C(=O)c5ccccc5)C4)CC3)n2)cc1OC [Compound 237]	32.6	45.34%	> 45	71.76%	> 45	18.53%
Cn1c(=O)n(C)c2cc(-c3noc(C4CCN(C(=O)CNC(=O)c5ccncc5)CC4)n3)ccc21 [Compound 238]	30	69.63%	> 45	70.06%	> 45	4.93%
Cc1nn(C)c2cc(-c3noc(C4CCN(C(=O)[C@H]5CCN(C(=O)c6ccccc6)C5)CC4)n3)ccc12 [Compound 239]	> 45	6.02%	> 45	75.58%	> 45	29.21%
Cc1nn(C)c2cc(-c3noc(C4CCN(C(=O)[C@H]5CC(=O)N(c6ccccc6)C5)C(C)C4)n3)ccc12 (some centres unmarked) [Compound 240]	> 45	12.95%	> 45	66.85%	> 45	4.30%
Cc1nn(C)c2cc(-c3noc(C4CCN(C(=O)[C@H]5CC(=O)N(c6ccccc6)C5)CC4(F)F)n3)ccc12 (some centres unmarked) [Compound 241]	> 45	16.97%	> 45	91.61%	> 45	6.15%
N#CCC1CN(c2noc(C3CCN(C(=O)C4CC(=O)N(c5ccccc5)C4)CC3)n2)C1 (centres unmarked) [Compound 242]	> 45	79.22%	> 45	101.23%	> 45	95.59%
Cn1ncc2c1CN(c1noc(C3CCN(C(=O)C4CC(=O)N(c5ccccc5)C4)CC3)n1)CC2 (centres unmarked) [Compound 243]	> 45	72.11%	> 45	94.50%	> 45	94.60%
Cc1nn(C)c2cc(-c3noc(C4CCN(C(=O)CNC(=O)c5ccccc5)CC4(F)F)n3)ccc12 (centres unmarked) [Compound 244]	> 45	2.85% and 2.47%	> 45	15.54% and 8.51%	> 45	3.34% and 1.29%
Cc1nn(C)c2cc(-c3noc(C4CCN(C(=O)C5CC(=O)N(CC6CC6)C5)CC4)n3)ccc12 (centres unmarked) [Compound 245]	> 45	66.96%	> 45	77.70%	> 45	95.26%
Cc1nn(C)c2cc(-c3noc(N4CCN(C(=O)[C@H]5CC(=O)N(c6ccccc6)C5)CC4)n3)cnc12 [Compound 246]	> 45	66.03%	–	77.22%	> 45	13.06%
N#Cc1ccc(-c2noc(C3CCN(C(=O)[C@H]4CC(=O)N(c5ccccc5)C4)CC3)n2)s1 [Compound 247]	> 45	72.46%	–	79.89%	> 45	98.49%
O=C([C@H]1CC(=O)N(c2ccccc2)C1)N1CCC(c2nc(-c3ccc(Br)s3)no2)CC1 [Compound 248]	> 45	13.59%	–	3.09%	> 45	73.12%
COc1cc(-c2noc(C3CCN(C(=O)CNC(=O)c4ccccc4)CC3)n2)ccc1OC1CC1 [Compound 249]	41.7	61.88%	–	80.12%	> 45	88.69%
Cc1nn(C)c2cc(-c3nsc(C4CCN(C(=O)CNC(=O)c5ccccc5)CC4)n3)ccc12 [Compound 250]	> 45	14.48%	–	86.09%	> 45	4.41%
Cc1nn(C)c2cc(-c3nsc(C4CCN(C(=O)C5CC(=O)N(c6ccccc6)C5)CC4)n3)ccc12 (centres unmarked) [Compound 251]	> 45	20.59%	> 45	83.15%	> 45	7.80%
CNC(=O)c1ccc(-c2noc(C3CCN(C(=O)[C@H]4CC(=O)N(c5ccccc5)C4)CC3)n2)cn1 [Compound 252]	> 45	39.69%	–	80.73%	> 45	27.85%
